Laboratory results reported in patent publication US20220244279A1, “ASSAYS AND METHODS FOR SCREENING FOR CARDIOVASCULAR DISEASE USING LDL SUBCLASSES AND ENDOTHELIAL NITRIC OXIDE/PEROXYNITRITE BALANCE” (Ohio University, priority 2019, published 2022).
Entries after “also recorded” stand apart in the source; their conditions may differ.

System: human umbilical vein endothelial cells (HUVECs)
Experiment: Effect of eNOS pathway modulators on LDL-stimulated NO and ONOO− release
Type: cell-based
Conditions: for NO production after pre-treatment vs control / ONOO− production after pre-treatment vs control: 30 min pre-treatment, then LDL subclass A, B or I 800 μg/mL; for effect on ratio of [NO]/[ONOO−]: modulators of L-arginine/NO pathway; for [NO]/[ONOO−] ratio with subclass I: pre-treatment, then subclass I 800 μg/mL
Protocol: Concurrent measurements of NO and ONOO^− were performed with electrochemical nanosensors (diameter: 200-300 nm). The designs of nanosensors are based on chemically modified carbon-fiber technology. Each of those sensors was made by depositing a sensing material on the tip of the carbon fiber. A conductive film of polymeric nickel (II) tetrakis (3-methoxy-4hydroxy-phenyl) porphyrinic was used for the NO sensor and a polymeric film of Mn (III)-paracyclophanyl-porphyrin was used for the ONOO^− sensor. NO and ONOO^− release from its basal level were measured by using amperometry with time (detection limit of 1 nmol/L and resolution time <50 ms). Each sensor was calibrated by using linear calibration curves from 50 nmol/L to 1000 nmol/L and/or standard addition methods before and after measurements with aliquots of NO or ONOO^− standard solutions, respectively.
Endothelial cells were seeded to 24 well plates and cultured in complete medium until confluent monolayer formed. Then the study was carried out as follows:
A control group was incubated in EBM only. After incubation, endothelial cells were stimulated with direct injection of subclasses A, B and I (800 μg/mL), and the release of NO/ONOO^− was measured with nanosensors.

SMILES	NO production after pre-treatment vs control	ONOO− production after pre-treatment vs control	effect on ratio of [NO]/[ONOO−]	[NO]/[ONOO−] ratio with subclass I	decrease of ONOO− concentration (VAS2870 10 μmol/L, LDL 800 μg/mL)
C[C@H](O)C(=O)C1=Nc2c(nc(N)[nH]c2=O)NC1 [sepiapterin]	higher level of NO	diminished; also recorded: lower level of ONOO^−	favorably increasing the ratio of [NO]/[ONOO^−]	greater than one	–
c1ccc(Cn2nnc3c(Sc4nc5ccccc5o4)ncnc32)cc1 [VAS2870]	–	diminished	–	–	20-27 % of control group
COC(=O)[C@@H](N)CCCNC(=N)N[N+](=O)[O-] [L-NAME, L-N^G-arginine methyl ester]	–	diminished	–	lower than one	–
N=C(N)NCCC[C@H](N)C(=O)O [L-arginine]	increase NO production	diminished; also recorded: decrease ONOO^− generation	favorably increasing the ratio of [NO]/[ONOO^−]	greater than one	–
